Measured values published in PubChem BioAssay (NCI).
Where “and” joins values, the source holds several entries; their conditions need not be identical. Equal entries are not always repeated.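 In this assay, cells in 96-well plates receive the compound at five concentrations for 48 hours. Endpoints are linearly interpolated between the surrounding concentrations. TGI: concentration producing complete growth inhibition.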

What was measured:
Test in all cases: NCI tumour cell line growth inhibition, 48 h
[1] = tested on: HOP-62 NSCLC
[2] = tested on: K-562 leukemia
[3] = tested on: MDA-N
[4] = tested on: EKVX NSCLC
[5] = tested on: SK-MEL-28 melanoma
[6] = tested on: U251 CNS
[7] = tested on: KM12 colon
[8] = tested on: MDA-MB-435
[9] = tested on: BT-549 breast
[10] = tested on: MCF7 breast
[11] = tested on: TK-10 renal
[12] = tested on: A549 NSCLC
[13] = tested on: SK-OV-3 ovarian
[14] = tested on: LOX IMVI melanoma
[15] = tested on: MDA-MB-231 breast
[16] = tested on: HT29 colon
[17] = tested on: UACC-62 melanoma
[18] = tested on: HCT-116 colon
[19] = tested on: NCI-H460 lung
[20] = tested on: NCI-H226 lung

Row | Compound | TGI [1] [µM] | TGI [2] [µM] | TGI [3] [µM] | TGI [4] [µM] | TGI [5] [µM] | TGI [6] [µM] | TGI [7] [µM] | TGI [8] | TGI [9] | TGI [10] [µM] | TGI [11] [µM] | TGI [12] [µM] | TGI [13] | TGI [14] [µM] | TGI [15] [µM] | TGI [16] [µM] | TGI [17] [µM] | TGI [18] [µM] | TGI [19] [µM] | TGI [20] [µM]
1 | CCCCCCCCCCCCCCCCCCNC(=O)C(N)Cc1ccc(OCc2ccccc2)cn1 (stereo not given) | 40 | 95.1 | 49.2 | 46.8 | 50.8 | 35.4 | 35.5 | 32.5 µM | 57.3 µM | 35.8 | 28.8 | 42.6 | 40.2 µM | 41.2 | 38.3 | 31.2 | 32.2 | 38.2 | 29.9 | –
2 | Cc1ccc2c(c1)[nH]c(=S)n2/C=C1\C(=O)Oc2ccccc2C1=O | > 100 | > 100 | > 100 | – | > 100 | > 100 | > 100 | > 100 µM | > 100 µM | > 100 | > 100 | > 100 | – | > 100 | > 100 | > 100 | > 100 | > 100 | > 100 | > 100
3 | O=C1/C(=C\c2ccc(O)cc2)CCC/C1=C/c1ccc(Cl)c(Cl)c1 | 16.1 | 11.9 | 8.01 | 20 | 13.9 | 16 | 3.77 | 9.51 µM | 7.49 µM | 14.9 | 10.5 | 15 | 17 µM | 3.62 | 7.55 | 3.54 | 5.24 | 4.01 | – | 15.5
4 | CCc1n[nH]c(=O)n1/N=C/c1c(O)ccc2ccccc12 | > 100 | > 100 | > 100 | > 100 | > 100 | > 100 | > 100 | > 100 µM | > 100 µM | > 100 | > 100 | > 100 | > 100 µM | > 100 | > 100 | – | > 100 | > 100 | – | –
5 | Cc1nc2ccccc2n1COC(Cn1ccnc1)c1ccc(Cl)cc1Cl (stereo not given) | > 100 | > 100 | > 100 | > 100 | > 100 | > 100 | > 100 | > 100 µM | 91.2 µM | > 100 | > 100 | > 100 | – | > 100 | > 100 | > 100 | > 100 | > 100 | 46.4 | –
6 | C=CCN1C(=O)C=C(c2ccccc2)n2ncc3cccc1c32 | > 100 | – | > 100 | > 100 | > 100 | > 100 | > 100 | – | > 100 µM | > 100 | > 100 | > 100 | > 100 µM | > 100 | > 100 | > 100 | > 100 | > 100 | – | > 100
7 | O=C1NC2ON=C(c3ccccc3)C2C2ON=C(c3ccccc3)N12 (stereo not given) | > 100 | – | > 100 | > 100 | – | – | > 100 | – | > 100 µM | > 100 | > 100 | > 100 | > 100 µM | > 100 | > 100 | > 100 | > 100 | – | > 100 | > 100
8 | CNc1ncnc2c1ncn2C1C=CC(COS(N)(=O)=O)C1 (stereo not given) | > 100 | > 100 | > 100 | > 100 | > 100 | > 100 | > 100 | > 100 µM | > 100 µM | > 100 | – | > 100 | > 100 µM | > 100 | – | > 100 | > 100 | > 100 | > 100 | –
9 | O=C(CN1CCCCC1)Nc1ccc2sc3ccccc3c(=O)c2n1 | 33.3 | 52.3 | 28.7 | 89.3 | 35.2 | 35.1 | 38.7 | 26.2 µM | 43.1 µM | 77.9 | 50.4 | 31.7 | 48.9 µM | 26.4 | 59.9 | > 100 | 30.1 | 26.2 | 36.5 | –
10 | O=c1oc2ccc3ccccc3c2cc1-c1cn2ccccc2n1 | > 100 | > 100 | > 100 | > 100 | > 100 | > 100 | > 100 | > 100 µM | > 100 µM | – | > 100 | > 100 | > 100 µM | > 100 | > 100 | 77.5 | > 100 | > 100 | > 100 | > 100
11 | Cc1cc2c(cc1-c1cc3c(cc1C)C(C(C)C)=C(O)C(=O)/C3=C\Nc1c3ccccc3nc3ccccc13)/C(=C/Nc1c3ccccc3nc3ccccc13)C(=O)C(O)=C2C(C)C | 16.6 | – | 15.8 | 5.67 | 19.5 | 13.7 | 14.1 | 17.1 µM | 20.7 µM | 11 | – | 13.1 | 15.9 µM | – | 19 | 5.1 | 14.6 | 21.5 | 6.3 | 5.53
12 | C=CCNC1=C2C[C@@H](C)C[C@@H](OC)[C@H](OC(=O)CCN)[C@H](C)/C=C(\C)[C@@H](OC(N)=O)[C@H](OC)/C=C\C=C(/C)C(=O)NC(=CC1=O)C2=O | 17.5 | > 100 | 11.2 | 36.4 | 44.2 | 18.8 | 11.2 | 13.4 µM | 21.2 µM | 7.71 | 10.5 | 18.5 | 11 µM | 10.8 | 17.7 | 18.7 | 12.3 | 13.6 | 15.2 | –
13 | Cc1cc2ccccc2n2c1nc1ccccc12 | > 100 | > 100 | > 100 | > 100 | > 100 | > 100 | > 100 | > 100 µM | > 100 µM | > 100 | > 100 | > 100 | > 100 µM | – | – | > 100 | > 100 | > 100 | > 100 | > 100
14 | O=C1CCCCC/C1=C\c1cccc(Cl)c1 | > 100 | – | > 100 | > 100 | > 100 | > 100 | > 100 | 94.4 µM | > 100 µM | – | – | > 100 | > 100 µM | > 100 | > 100 | > 100 | > 100 | > 100 | 87.7 | > 100
15 | CSc1nc(C#N)c(/N=C\N(C)C)n1C | > 100 | > 100 | > 100 | > 100 | > 100 | > 100 | > 100 | > 100 µM | > 100 µM | – | > 100 | > 100 | > 100 µM | > 100 | > 100 | – | > 100 | > 100 | > 100 | > 100
16 | C=C(C)C1=CCC[C@]2(C1)N=C(OC)[C@@H](C(C)C)N=C2OC | > 100 | – | > 100 | > 100 | > 100 | > 100 | > 100 | > 100 µM | > 100 µM | > 100 | > 100 | > 100 | > 100 µM | – | > 100 | > 100 | > 100 | > 100 | > 100 | > 100
17 | O=[N+]([O-])/C(C(Cl)=C(Cl)Cl)=C(\N1CCOCC1)n1nnc2ccccc21 | 36.2 | – | 42.5 | 35.2 | 42.6 | 30.3 | 45.6 | 41 µM | 33.1 µM | 56.1 | 63.8 | 42.7 | 79.2 µM | – | 35.1 | – | 46.7 | > 100 | 45.6 | 58.7
18 | Nc1ncnn2c(C3OC(CO)C(O)C3O)ccc12 (stereo not given) | 1.48 | 0.569 | 0.693 | 4.23 | 0.592 | 4.14 | 0.677 | 0.376 µM | 0.789 µM | – | 0.682 | 3.14 | – | 0.0463 | 1.11 | 1.45 | 0.358 | 0.151 | 0.918 | 0.866
19 | COc1ccc(-c2c(C#N)c(N)n(C3OCC(OC(C)=O)C(OC(C)=O)C3OC(C)=O)c(=S)c2C#N)cc1 (stereo not given) | > 100 | – | > 100 | > 100 | > 100 | > 100 | > 100 | 98.6 µM and > 100 µM | 78.7 µM and 99 µM | > 100 | – | > 100 | 85.2 µM and > 100 µM | > 100 | > 100 | > 100 | > 100 | > 100 | > 100 | > 100
20 | N#Cc1c(N)nc(-c2ccc(Cl)cc2)c2c1-c1ccccc1S(=O)(=O)CC2 | > 100 | > 100 | > 100 | – | > 100 | > 100 | > 100 | > 100 µM | > 100 µM | – | > 100 | > 100 | – | > 100 | > 100 | > 100 | > 100 | > 100 | > 100 | > 100
21 | CCOC(=O)P(=O)(O)c1ccc(N(C)Cc2ccccc2)cc1 | > 100 | > 100 | > 100 | > 100 | > 100 | > 100 | > 100 | > 100 µM | > 100 µM | > 100 | > 100 | > 100 | > 100 µM | > 100 | > 100 | > 100 | > 100 | > 100 | – | > 100
22 | Clc1ccc(NCc2nnc(CCCCCCCCc3nnc(CNc4ccc(Cl)cc4)o3)o2)cc1 | > 100 | > 100 | > 100 | > 100 | – | > 100 | > 100 | > 100 µM | > 100 µM | > 100 | > 100 | > 100 | > 100 µM | > 100 | > 100 | > 100 | > 100 | > 100 | > 100 | –
23 | CS(=O)(=O)c1nc(-c2cc3c(c(S(C)(=O)=O)n2)CCC3)cc2c1CCCCC2 | 84.8 | > 100 | > 100 | > 100 | > 100 | > 100 | > 100 | > 100 µM | 58.2 µM | – | > 100 | > 100 | 34.9 µM | > 100 | > 100 | > 100 | 80 | > 100 | – | > 100
24 | CC(=O)NC1C(OCc2ccccc2)OC(CO)C(O)C1OC(C)C(=O)NC(C(=O)N[C@@H](CCC(=O)NCCNCCNc1c2ccccc2nc2cccc([N+](=O)[O-])c12)C(N)=O)C(C)C (stereo not given in full) | > 100 | 19.9 | 54.5 | – | > 100 | > 100 | 98.7 | 29.3 µM | > 100 µM | 41.5 | > 100 | 97 | > 100 µM | > 100 | > 100 | – | – | 56.2 | > 100 | > 100
25 | O=c1c2c(oc3ccccc13)-c1ccccc1OC2 | > 100 | > 100 | > 100 | > 100 | – | > 100 | > 100 | > 100 µM | > 100 µM | > 100 | > 100 | > 100 | 53.2 µM | > 100 | 47.4 | > 100 | > 100 | > 100 | – | > 100
